Reference: patent publication US20070004715A1, “Novel spiro-quinuclidinyl derivatives for the treatment of central nervous system disorders” (priority 2005, published 2007)
Structures can show the parent of a compound that is named as a salt.

What was measured:
[1] = target: T1, fluo-Aβ1-40 (Homo sapiens, UniProt P05067); assay: Aβ Aggregation Assay (Synthaloid plates, fluo-Aβ1-40); format: biochemical; details: 10 μM test compound, 100 nM fluo-Aβ1-40, 2.5 hr at room temperature; higher % = greater effectiveness at preventing aggregation
T1 construct: added 100 nM of fluo-Aβ1-40 in 100 μl
T1 sequence (P05067 672-711): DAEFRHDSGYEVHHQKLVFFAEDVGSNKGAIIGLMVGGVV
Experimental: Aβs are known to form aggregates leading to the formation of amyloid plaques that are characteristic of Alzheimer's disease.
This aggregation assay was validated using both ^125I-Aβ1-40 and fluo-Aβ1-40 in a buffer containing 50 mM HEPES, pH 7.4, 0.1% BSA, 10% FCS and protease inhibitors.
To each well of a 96-well Synthaloid plate was added 100 nM of fluo-Aβ1-40 in 100 μl. To each well was then added 10 μM of test compound. The plate was then allowed to incubate for 2.5 hr at room temperature. At the end of the incubation, unbound protein in the wells was removed by three washes using the buffer as described above. The amount of bound protein (which represents the amount of Aβ aggregation) was measured either by fluorescence measurements.
Higher fluorescence values relative to vehicle wells were interpreted as an indication of greater Aβ aggregation. […] Higher % values in the data in Table 4 below, below indicates greater effectiveness at preventing aggregation.
(§1) Both the Aβ aggregation assay as described in Example 55, particularly as run using the ^125I-Aβ1-40, and the % inhibition of AcH release assay as described in Example 56, were highly variable on a run-to-run basis. However, the relative activities of the tested compounds were reproducible.

[2] = system: Synaptosomes from guinea pig hippocampus; assay: % Inhibition of AcH Release Assay (K+-evoked 3H-acetylcholine release); format: cell-based; details: synaptosomes pre-treated with 10 μM test compound prior to 65 mM K+ stimulation
Experimental: Synaptosomes from guinea pig hippocampus were incubated with 0.1 μM ^3H-choline and then subjected to repeated washes with buffer to remove unincorporated ^3H-choline. The synaptosomes were then treated with 65 mM K^+ for 30 seconds to elicit 3H-acetylcholine release.
To determine if a test compound will inhibit acetylcholine release, the synaptosomes were pre-treated with 10 μM of the test compound prior to the K+ stimulation. The decrease or increase in acetylcholine release was then measured by superfusion.
as §1

What does the source list for `O=C1OC2(CN3CCC2CC3)C(=O)N1c1cccc(C(F)(F)F)c1` (stereo not drawn) [Compound 1, 3′-(3-trifluoromethylphenyl)-quinuclidine-3-spiro-5′-oxazolidine-2′,4′-dione trifluoroacetate salt]?
Aβ aggregation inhibition (%) [1]: 100%; Inhibition of acetylcholine release [2]: 36%

For `Cc1ccc(N2C(=O)OC3(CN4CCC3CC4)C2=O)cc1` (stereo not drawn) [Compound 2, 3′-(4-methylphenyl)-quinuclidine-3-spiro-5′-oxazolidine-2′,4′-dione trifluoroacetate salt], which “Aβ aggregation inhibition (%)” value [1] is on record?
The value was 44%.

And the “Inhibition of acetylcholine release” value [2]?
The value was 74%.

For `COc1ccc(N2C(=O)OC3(CN4CCC3CC4)C2=O)cc1` (stereo not drawn) [Compound 3, 3′-(4-methoxyphenyl)-quinuclidine-3-spiro-5′-oxazolidine-2′,4′-dione trifluoroacetate salt], which “Aβ aggregation inhibition (%)” value [1] is on record?
The value was 100%.

And the “Inhibition of acetylcholine release” value [2]?
Its value is 27%.

For `COc1ccc(N2C(=O)OC3(CN4CCC3CC4)C2=O)c(C)c1` (stereo not drawn) [Compound 4, 3′-(4-methoxy-2-methylphenyl)-quinuclidine-3-spiro-5′-oxazolidine-2′,4′-dione trifluoroacetate salt], which “Aβ aggregation inhibition (%)” value [1] is on record?
The value was 95%.

What about the “Inhibition of acetylcholine release” value [2] of the same molecule?
The value was 36%.

Which “Aβ aggregation inhibition (%)” value [1] does the source give for `O=C1OC2(CN3CCC2CC3)C(=O)N1c1ccc(Cl)c(Cl)c1` (stereo not drawn) [Compound 5, 3′-(3,4-dichlorophenyl)-quinuclidine-3-spiro-5′-oxazolidine-2′,4′-dione trifluoroacetate salt] here?
The value was 98%.

What about the “Inhibition of acetylcholine release” value [2] of the same molecule?
Its value is 27%.

For `O=C1OC2(CN3CCC2CC3)C(=O)N1c1cccc([N+](=O)[O-])c1` (stereo not drawn) [Compound 6, 3′-(3-nitrophenyl)-quinuclidine-3-spiro-5′-oxazolidine-2′,4′-dione trifluoroacetate salt], which “Aβ aggregation inhibition (%)” value [1] is on record?
Its value is 21%.

And the “Inhibition of acetylcholine release” value [2]?
Its value is 64%.

What does the source list for `O=C1OC2(CN3CCC2CC3)C(=O)N1c1cc(Cl)cc(Cl)c1` (stereo not drawn) [Compound 7, 3′-(3,5-dichlorophenyl)-quinuclidine-3-spiro-5′-oxazolidine-2′,4′-dione trifluoroacetate salt]?
Aβ aggregation inhibition (%) [1]: 62%; Inhibition of acetylcholine release [2]: 70%

What does the source list for `O=C1OC2(CN3CCC2CC3)C(=O)N1c1cc(C(F)(F)F)cc(C(F)(F)F)c1` (stereo not drawn) [Compound 8, 3′-(3,5-bis(trifluoromethyl)phenyl)-quinuclidine-3-spiro-5′-oxazolidine-2′,4′-dione trifluoroacetate salt]?
Aβ aggregation inhibition (%) [1]: 0%; Inhibition of acetylcholine release [2]: 77%

Which results are given for `O=C1OC2(CN3CCC2CC3)C(=O)N1c1ccccc1F` (stereo not drawn) [Compound 9, 3′-(2-fluorophenyl)-quinuclidine-3-spiro-5′-oxazolidine-2′,4′-dione trifluoroacetate salt]?
Aβ aggregation inhibition (%) [1]: 100%; Inhibition of acetylcholine release [2]: 16%

Which results are given for `O=C1OC2(CN3CCC2CC3)C(=O)N1c1cccc(Cl)c1` (stereo not drawn) [Compound 10, 3′-(3-chlorophenyl)-quinuclidine-3-spiro-5′-oxazolidine-2′,4′-dione trifluoroacetate salt]?
Aβ aggregation inhibition (%) [1]: 50%; Inhibition of acetylcholine release [2]: 60%

With `Cc1ccc(C)c(N2C(=O)OC3(CN4CCC3CC4)C2=O)c1` (stereo not drawn) [Compound 11, 3′-(2,5-dimethyphenyl)-quinuclidine-3-spiro-5′-oxazolidine-2′,4′-dione trifluoroacetate salt] as the molecule, how does the “Aβ aggregation inhibition (%)” value [1] read?
The value was 0%.

And the “Inhibition of acetylcholine release” value [2]?
The value was 71%.

For `O=C1OC2(CN3CCC2CC3)C(=O)N1c1cc(Cl)ccc1Cl` (stereo not drawn) [Compound 12, 3′-(2,5-dichlorophenyl)-quinuclidine-3-spiro-5′-oxazolidine-2′,4′-dione trifluoroacetate salt], which “Aβ aggregation inhibition (%)” value [1] is on record?
Its value is 85%.

And the “Inhibition of acetylcholine release” value [2]?
The value was 17%.

Which results are given for `CCOC(=O)c1cccc(N2C(=O)OC3(CN4CCC3CC4)C2=O)c1` (stereo not drawn) [Compound 13, 3′-(3-ethoxycarbonylphenyl)-quinuclidine-3-spiro-5′-oxazolidine-2′,4′-dione trifluoroacetate salt]?
Aβ aggregation inhibition (%) [1]: 100%; Inhibition of acetylcholine release [2]: 20%

`COc1cccc(N2C(=O)OC3(CN4CCC3CC4)C2=O)c1` (stereo not drawn) [Compound 14, 3′-(3-methoxyphenyl)-quinuclidine-3-spiro-5′-oxazolidine-2′,4′-dione trifluoroacetate salt] was tested. Which “Aβ aggregation inhibition (%)” value [1] did it give?
The value was 42%.

And the “Inhibition of acetylcholine release” value [2]?
The value was 14%.

For `O=C1OC2(CN3CCC2CC3)C(=O)N1c1cccc(O)c1` (stereo not drawn) [Compound 15, 3′-(3-hydroxyphenyl)-quinuclidine-3-spiro-5′-oxazolidine-2′,4′-dione trifluoroacetate salt], which “Aβ aggregation inhibition (%)” value [1] is on record?
Its value is 50%.

What about the “Inhibition of acetylcholine release” value [2] of the same molecule?
Its value is 55%.

For `Cc1ccc(N2C(=O)OC3(CN4CCC3CC4)C2=O)cc1C` (stereo not drawn) [Compound 16, 3′-(3,4-dimethylphenyl)-quinuclidine-3-spiro-5′-oxazolidine-2′,4′-dione trifluoroacetate salt], which “Aβ aggregation inhibition (%)” value [1] is on record?
Its value is 67%.

And the “Inhibition of acetylcholine release” value [2]?
The value was 44%.

What does the source list for `O=C1OC2(CN3CCC2CC3)C(=O)N1c1ccc(O)cc1` (stereo not drawn) [Compound 18, 3′-(4-hydroxyphenyl)-quinuclidine-3-spiro-5′-oxazolidine-2′,4′-dione trifluoroacetate salt]?
Aβ aggregation inhibition (%) [1]: 0%; Inhibition of acetylcholine release [2]: 23%

Which “Aβ aggregation inhibition (%)” value [1] does the source give for `Cc1cc(O)ccc1N1C(=O)OC2(CN3CCC2CC3)C1=O` (stereo not drawn) [Compound 19, 3′-(4-hydroxy-2-methylphenyl)-quinuclidine-3-spiro-5′-oxazolidine-2′,4′-dione trifluoroacetate salt] here?
Its value is 0%.

And the “Inhibition of acetylcholine release” value [2]?
The value was 27%.

With `Cc1cc(C)cc(N2C(=O)OC3(CN4CCC3CC4)C2=O)c1` (stereo not drawn) [Compound 20, 3′-(3,5-dimethylphenyl)-quinuclidine-3-spiro-5′-oxazolidine-2′,4′-dione trifluoroacetate salt] as the molecule, how does the “Aβ aggregation inhibition (%)” value [1] read?
The value was 0%.

What about the “Inhibition of acetylcholine release” value [2] of the same molecule?
Its value is 53%.

For `O=C1OC2(CN3CCC2CC3)C(=O)N1c1ccc(F)cc1F` (stereo not drawn) [Compound 21, 3′-(2,4-difluorophenyl)-quinuclidine-3-spiro-5′-oxazolidine-2′,4′-dione trifluoroacetate salt], which “Aβ aggregation inhibition (%)” value [1] is on record?
Its value is 1%.

What about the “Inhibition of acetylcholine release” value [2] of the same molecule?
The value was 17%.

Which “Aβ aggregation inhibition (%)” value [1] does the source give for `Cc1ccc(N2C(=O)OC3(CN4CCC3CC4)C2=O)cc1Cl` (stereo not drawn) [Compound 24, 3′-(3-chloro-4-methylphenyl)-quinuclidine-3-spiro-5′-oxazolidine-2′,4′-dione trifluoroacetate salt] here?
Its value is 40%.

What about the “Inhibition of acetylcholine release” value [2] of the same molecule?
Its value is 44%.

For `O=C1OC2(CN3CCC2CC3)C(=O)N1c1cccc(F)c1` (stereo not drawn) [Compound 25, 3′-(3-fluorophenyl)-quinuclidine-3-spiro-5′-oxazolidine-2′,4′-dione trifluoroacetate salt], which “Aβ aggregation inhibition (%)” value [1] is on record?
The value was 5%.

What about the “Inhibition of acetylcholine release” value [2] of the same molecule?
Its value is 48%.

For `Cc1ccccc1N1C(=O)OC2(CN3CCC2CC3)C1=O` (stereo not drawn) [Compound 26, 3′-(2-methylphenyl)-quinuclidine-3-spiro-5′-oxazolidine-2′,4′-dione trifluoroacetate salt], which “Aβ aggregation inhibition (%)” value [1] is on record?
The value was 45%.

And the “Inhibition of acetylcholine release” value [2]?
Its value is 54%.

Which results are given for `Cc1cccc(N2C(=O)OC3(CN4CCC3CC4)C2=O)c1C` (stereo not drawn) [Compound 27, 3′-(2,3-dimethylphenyl)-quinuclidine-3-spiro-5′-oxazolidine-2′,4′-dione trifluoroacetate salt]?
Aβ aggregation inhibition (%) [1]: 35%; Inhibition of acetylcholine release [2]: 25%

`CC(C)c1ccccc1N1C(=O)OC2(CN3CCC2CC3)C1=O` (stereo not drawn) [Compound 28, 3′-(2-isopropylphenyl)-quinuclidine-3-spiro-5′-oxazolidine-2′,4′-dione trifluoroacetate salt] was tested. Which “Aβ aggregation inhibition (%)” value [1] did it give?
The value was 0%.

What about the “Inhibition of acetylcholine release” value [2] of the same molecule?
The value was 47%.

For `COc1ccc(OC)c(N2C(=O)OC3(CN4CCC3CC4)C2=O)c1` (stereo not drawn) [Compound 29, 3′-(2,5-dimethoxyphenyl)-quinuclidine-3-spiro-5′-oxazolidine-2′,4′-dione trifluoroacetate salt], which “Aβ aggregation inhibition (%)” value [1] is on record?
Its value is 100%.

And the “Inhibition of acetylcholine release” value [2]?
The value was 20%.

With `CCOC(=O)CN1C(=O)OC2(CN3CCC2CC3)C1=O` (stereo not drawn) [Compound 30, 3′-(2-ethoxycarbonylmethyl)-quinuclidine-3-spiro-5′-oxazolidine-2′,4′-dione hydrochloride] as the molecule, how does the “Aβ aggregation inhibition (%)” value [1] read?
The value was 100%.

And the “Inhibition of acetylcholine release” value [2]?
The value was 21%.
